# Values of other authors in patent publication US20040071685A1, “Compositions and methods for increasing the bioavailability of plant polyphenols” (priority 2002, published 2004).
# Assays:
# [1] = adults
# [2] = rats, 15 μM administered in the stomach in situ, after 30 minutes
# [3] = test system: alpha-glucosidase (invertase)
# [4] = rats, oral, 700 μM/kg body weight
amount remaining in the stomach [2] [µM],Compound,volume of distribution [1],also measured
–,O=c1c(-c2ccc(O)cc2)coc2cc(O)ccc12 [daidzein],large,–
15,C[C@@H]1O[C@@H](OC[C@H]2O[C@@H](Oc3c(-c4ccc(O)c(O)c4)oc4cc(O)cc(O)c4c3=O)[C@H](O)[C@@H](O)[C@@H]2O)[C@H](O)[C@H](O)[C@H]1O [rutin],–,–
–,O=c1c(-c2ccc(O)cc2)coc2cc(O)cc(O)c12 [genistein],large,"type of inhibition [3]: reversible, slow-binding, non-competitive inhibitor"
–,O=C(O)/C=C/c1ccc(O)c(O)c1 [caffeic acid],–,maximum serum level of conjugates [4]: 0.64 µM; time of maximum serum levels [4]: 2 h
8.6,O=c1c(O)c(-c2ccc(O)c(O)c2)oc2cc(O)cc(O)c12 [quercetin],–,amount found in the bile samples [2]: 4.1 µM
15,O=c1c(O[C@@H]2O[C@H](CO)[C@@H](O)[C@H](O)[C@H]2O)c(-c2ccc(O)c(O)c2)oc2cc(O)cc(O)c12 [isoquercitrin],–,–
